Experimental data as given in patent publication US9895438B2, “Treatment of cancer with naltrexone” (Cancer Vaccine Institute, priority 2013, dated 2018).
Entries after “also recorded” stand apart in the source; their conditions may differ. Where two headings read alike, the source gives them in different places.

Assays:
[1] = tested on: metastatic melanoma; test: Patient with chemotherapy-resistant metastatic melanoma treated with LDN
[2] = tested on: hormone-refractory prostate cancer; test: Patient with hormone-refractory prostate cancer treated with Mycobacterium vaccae plus LDN; assay type: in vivo, human; details: one patient, LDN added to Mycobacterium vaccae treatment
[3] = tested on: TLR2, TLR3, TLR4, TLR5, TLR7, TLR8, TLR9, NOD1, NOD2; test: Agonist assays on panel of TLR and NOD transfectants; assay type: cell-based; details: TLR2, 3, 4, 5, 7, 8, 9, NOD1, NOD2
Method: (§1) Samples and controls were tested in duplicate on recombinant HEK-293 cell lines expressing the various TLR and NOD receptors with an alkaline phosphatase reporter gene. Cells were incubated with or without 1 μM naltrexone in an antagonist assay using the Invivogen panel of TLR and NOD signalling transfectants. Results shown are for TLR4 and TLR9, TLR activation results are given as optical density (O.D.) values, which have been confirmed in three independent experiments.
(§2) Low dose naltrexone (LDN) was tested in agonist and antagonist assays on a panel of TLR and NOD transfectants (TLR2, TLR3, TLR4, TLR5, TLR7, TLR8, TLR9, NOD1, NOD2). Screening assays were performed by Cayla-Invivogen (Toulouse, France).

[4] = target: T1, TLR9 (Homo sapiens, UniProt Q9NR96); test: TLR9 antagonist assay, HEK-293 transfectants with alkaline phosphatase reporter gene (Invivogen panel); assay type: cell-based
T1 construct: host or cells: HEK-293
T1 sequence (Q9NR96 26-1032): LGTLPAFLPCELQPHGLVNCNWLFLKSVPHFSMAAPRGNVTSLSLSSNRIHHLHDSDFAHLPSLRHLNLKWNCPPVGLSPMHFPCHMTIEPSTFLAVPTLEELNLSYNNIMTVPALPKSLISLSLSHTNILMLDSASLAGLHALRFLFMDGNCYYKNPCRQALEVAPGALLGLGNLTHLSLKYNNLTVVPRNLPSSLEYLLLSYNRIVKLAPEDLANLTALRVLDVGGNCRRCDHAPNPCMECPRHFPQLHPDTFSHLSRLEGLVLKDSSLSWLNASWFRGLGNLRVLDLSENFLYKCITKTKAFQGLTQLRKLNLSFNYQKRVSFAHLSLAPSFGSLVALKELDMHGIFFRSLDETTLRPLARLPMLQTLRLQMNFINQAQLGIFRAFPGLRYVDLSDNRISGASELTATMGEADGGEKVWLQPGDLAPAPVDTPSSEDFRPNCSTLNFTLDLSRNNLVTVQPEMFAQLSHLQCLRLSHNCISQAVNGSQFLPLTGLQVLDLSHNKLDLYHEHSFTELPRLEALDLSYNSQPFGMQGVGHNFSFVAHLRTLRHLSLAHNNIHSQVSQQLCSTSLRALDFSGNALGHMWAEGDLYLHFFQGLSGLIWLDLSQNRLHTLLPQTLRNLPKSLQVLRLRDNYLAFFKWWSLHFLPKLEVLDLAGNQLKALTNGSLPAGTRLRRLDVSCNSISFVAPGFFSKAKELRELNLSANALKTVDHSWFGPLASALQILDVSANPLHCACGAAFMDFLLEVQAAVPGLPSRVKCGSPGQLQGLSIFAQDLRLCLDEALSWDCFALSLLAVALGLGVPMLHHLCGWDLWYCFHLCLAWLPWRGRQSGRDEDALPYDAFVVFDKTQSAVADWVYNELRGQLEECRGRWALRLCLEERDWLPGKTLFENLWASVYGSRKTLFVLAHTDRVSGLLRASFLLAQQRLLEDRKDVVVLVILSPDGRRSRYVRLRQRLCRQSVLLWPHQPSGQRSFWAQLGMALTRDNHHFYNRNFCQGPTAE
Method: as §1, §2

[5] = target: T2, TLR4 (Homo sapiens, UniProt O00206+Q9Y6Y9); test: TLR4 antagonist assay, HEK-293 transfectants with alkaline phosphatase reporter gene (Invivogen panel); assay type: cell-based; details: 1 μM naltrexone, O.D. readout (FIG. 1)
T2 construct: host or cells: HEK-293
T2 sequence (O00206 24-839, species assumed): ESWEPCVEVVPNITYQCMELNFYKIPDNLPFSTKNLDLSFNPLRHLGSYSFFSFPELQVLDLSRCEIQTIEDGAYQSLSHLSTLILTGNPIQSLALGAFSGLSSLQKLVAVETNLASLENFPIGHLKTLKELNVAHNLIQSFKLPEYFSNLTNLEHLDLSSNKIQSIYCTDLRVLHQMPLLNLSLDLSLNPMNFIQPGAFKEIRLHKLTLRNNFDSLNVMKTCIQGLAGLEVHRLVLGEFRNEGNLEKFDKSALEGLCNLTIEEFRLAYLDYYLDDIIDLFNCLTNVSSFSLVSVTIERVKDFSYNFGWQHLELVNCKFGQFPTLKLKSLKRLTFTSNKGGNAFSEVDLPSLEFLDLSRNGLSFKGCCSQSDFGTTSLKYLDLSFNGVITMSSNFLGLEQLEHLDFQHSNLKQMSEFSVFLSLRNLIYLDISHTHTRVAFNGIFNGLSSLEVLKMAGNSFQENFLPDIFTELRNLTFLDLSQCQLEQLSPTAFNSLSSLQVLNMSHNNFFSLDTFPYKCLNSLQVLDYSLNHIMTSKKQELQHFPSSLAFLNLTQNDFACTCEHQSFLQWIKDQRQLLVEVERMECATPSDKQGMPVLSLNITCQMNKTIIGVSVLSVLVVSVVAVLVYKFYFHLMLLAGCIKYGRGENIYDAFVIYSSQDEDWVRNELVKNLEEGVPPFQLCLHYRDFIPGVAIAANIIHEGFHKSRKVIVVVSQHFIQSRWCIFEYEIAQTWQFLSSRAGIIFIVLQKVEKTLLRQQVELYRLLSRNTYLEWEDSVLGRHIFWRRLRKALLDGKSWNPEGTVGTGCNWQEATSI
T2 sequence (Q9Y6Y9 17-160 limits assumed, species assumed): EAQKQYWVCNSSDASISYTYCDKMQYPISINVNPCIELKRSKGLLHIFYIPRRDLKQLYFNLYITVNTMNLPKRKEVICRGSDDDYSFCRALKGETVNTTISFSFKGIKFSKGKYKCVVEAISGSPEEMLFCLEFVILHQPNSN
Method: as §1, §2

[6] = target: T2, TLR4; details: Hutchinson et al. (2008); cited from earlier work

O=C1CC[C@@]2(O)[C@H]3Cc4ccc(O)c5c4[C@@]2(CCN3CC2CC2)[C@H]1O5 [LDN, morphinan-6-one,17-(cyclopropylmethyl)-4,5-epoxy-3,14-dihydroxy-(5α)]
time to development of vitiligo ([1]; after administration of low dose naltrexone): ≤ 48 h
development of vitiligo (sign of activated cytotoxic T cells against melanoma antigens) ([1]; one patient previously given vaccine and radiotherapy, LDN as supportive treatment prior to more radiotherapy): marked vitiligo
prostate-specific antigen levels [2]: drop in prostate-specific antigen levels
stimulation of signalling (agonism) through TLR and NOD receptors [3]: did not stimulate signalling through any of the receptors tested
antagonism of TLR9 (recognition of CpG DNA) ([4]; antagonist assay, 1 μM naltrexone, O.D. readout (FIG. 1)): striking antagonistic effect; also recorded: inhibited recognition of CpG DNA
IC50 ([4]; titration, TLR9-transfected cell line, naltrexone diluted in PBS or H2O (FIG. 2), read-out: IC50 for inhibition of TLR9): ~50 µM
antagonism of TLR4 [5]: mild antagonistic effect; also recorded: mild antagonist effect
antagonism of TLR4 [6]: weakly antagonise TLR4
